# Source: PubChem BioAssay AID1996
# Conditions: buffer; pH 7.4; 200.0 µM
row,Compound,solubility kinetic [µg/mL]
1,O=C1CSC(=Nc2ccc(Cl)cc2)N1Cc1ccco1,10.9
2,Cc1ccc(CN2C(=O)C(=O)N(CC(N)=O)C2=O)cc1,> 41.3
3,CCN(CC)P(c1n(C)cc[n+]1C)N(CC)CC.[I-],46.9
4,C=CCn1c(O)c(C=NCCCn2ccnc2)c(=O)[nH]c1=O,> 45.5
5,COc1cccc(C(=O)O/N=C(\C)c2cnccn2)c1,30.7
6,CCC(=O)c1c[nH]c(C(=O)NCc2cccnc2)c1,> 38.6
7,COc1cccc(-n2ccnc2SCC(=O)Nc2cc(C)on2)c1,37.5
8,O=C(NCCO)c1cc([N+](=O)[O-])cc2c1C=Cc1ccccc1O2,35.3
9,Cc1ccsc1CN1CC(=O)N(c2c(C)cccc2C)C1=S,12.2
10,CC(C)[C@H](NC(=O)c1ccccc1)C(=O)O,> 33.2
11,CCOc1ccccc1CN1CCN(C2CCC2)CC1CCO (stereo not drawn),39.9
12,CC1=C([N+](=O)[O-])C(c2ccccc2C(F)(F)F)NC(=O)N1C (stereo not drawn),> 47.3
13,Cc1[nH]c2c(C)cccc2c1CN1CCC(CO)(Cc2ccccc2)CC1,28.8
14,N#C/C(=C\c1ccc(F)c(Cl)c1)S(=O)(=O)c1ccccn1,44
15,CCOc1ccccc1/C=C\c1nc(O)c([N+](=O)[O-])c(=O)[nH]1,> 45.5
16,CC(=O)C1C(c2ccc(Cl)cc2)c2c(noc2C)CC1(C)O (stereo not drawn),> 48
17,Cc1noc(C)c1C(=O)NCCc1c(C)[nH]c2ccccc12,41.5
18,C=CCOc1ccc(C(=O)Nc2ccc3c(c2)n(C)c(=O)n3C)cc1,11.4
19,NC(=S)Nc1cc(Cl)ccc1Cl,30.2
20,COc1ccc2[nH]cc(CCNC(=S)NCCc3ccccc3)c2c1,26.3
21,CCC(=NCc1cccnc1)c1c(O)n(-c2ccc(C)cc2)c(=O)[nH]c1=O,31.6
22,COc1ccc(NC(=O)COc2cccnc2[N+](=O)[O-])cc1OC,> 50
23,CC1(C)CCN2CCC(C)(C)c3c(O)ccc1c32.CS(=O)(=O)O,19.6
24,Cc1ccccc1N=C1NC(=O)/C(=C/c2cccnc2)S1,38.1

row,Compound,solubility kinetic [µg/mL]
1,Cc1ccccc1OP(N)(=O)Oc1ccccc1C,> 41.6
2,Cc1cc(S(=O)(=O)NCCN2CCOCC2)ccc1Cl,> 47.8
3,COc1ccc(C(=O)CNc2ccc(C)cc2C)cc1,5.8
4,C=CCn1c(C)cc(C(=O)COc2ccc(N(C)S(=O)(=O)c3ccc(NC(C)=O)cc3)cc2)c1C,9.3
5,O=S(=O)(NCCn1cccc1)c1ccc2ccccc2c1,2.1
6,Cc1ccc2[nH]cc(CCNC(=O)C3CCCCC3)c2c1,34.2
7,O=C(Nc1cccc2ccccc12)c1cccc([N+](=O)[O-])c1,1.4
8,CN(Cc1ccccc1)C(=O)CN1C(=O)c2ccc([N+](=O)[O-])cc2C1=O,> 53
9,O=C(COC(=O)c1c(Cl)cccc1Cl)NCc1cccs1,> 51.6
10,NC(=O)c1c(NC(=O)c2ccccc2Cl)sc2c1CCC2,0.7
11,CCn1c(=O)c2c(nc3n2CCN3c2ccccc2)n(C)c1=O,3.1
12,Cc1cccc(NC(=S)N2CCN(C(=O)c3ccco3)CC2)c1,> 49.4
13,COC(=O)c1c(C)[nH]c(C)c1-c1ccc([N+](=O)[O-])cc1,36.3
14,CC(C)C[C@H](N)c1nnc(SCc2ccc(Cl)cc2)o1.Cl,> 52.2
15,CCOc1ccc(-n2c(=O)c3ccccc3c3ccccc3c2=O)cc1,18
16,Cc1cccc(OCC(=O)OCC(=O)N2CCN(C(=O)c3ccco3)CC2)c1C,> 60.1
17,Cc1noc(C)c1COc1cccc(C(=O)NC(C)(C)C)c1,> 45.4
18,CN(C)C(CNC(=O)c1ccccc1C(F)(F)F)c1ccco1 (stereo not drawn),> 48.9
19,COc1cc(S(=O)(=O)NCc2ccc3c(c2)OCO3)c(OC)cc1C,53.9
20,CCCN1C2CCCC1CC(NC(=S)Nc1cccc(C)c1)C2 (stereo not drawn),> 49.7
21,O=C(Nc1nc(-c2ccccn2)cs1)Nc1ccc(F)cc1F,2.4
22,COc1ccc(C(OC(=O)c2ccco2)C(=O)NC2CCCC2)cc1 (stereo not drawn),3.4
23,O=C(COC(=O)C1CCC1)NCCc1ccc(Cl)cc1Cl,> 49.5
24,CCN(CC)S(=O)(=O)c1ccc(OC(C)C)c(N)c1,> 43

row,Compound,solubility kinetic [µg/mL]
1,CCOC(=O)Cc1ccc(NC(=O)c2ccc([N+](=O)[O-])cc2)cc1,1
2,NS(=O)(=O)c1ccc(CCNC(=S)NC(=O)c2ccccc2Br)cc1,3.3
3,O=C(c1cc(Cl)ccc1OCc1ccccc1)N1CCOCC1,> 49.8
4,CCC(=O)N1C(=O)C2(Nc3ccccc3N2)c2ccccc21,> 44
5,COc1ccc(NS(=O)(=O)c2cc(C(=O)N3CCCCCC3)ccc2C)cc1,> 60.4
6,Cc1ccc(S(=O)(=O)N2CCCN(C)CC2)cc1.Cl,> 45.7
7,CC(Oc1ccc(C#N)cc1)C(=O)c1ccc(F)c(F)c1 (stereo not drawn),32.6
8,CO[C@H]1O[C@H](C)[C@@H](O)C[C@H]1NC(=O)OCc1ccccc1,> 44.3
9,CCOC(=O)C1=C(COC(=O)[C@@H](NC(=O)c2cccc(C)c2)C(C)C)NC(=O)NC1C (stereo partly drawn),> 64.7
10,CSc1nnc(C)c(=O)n1COC(=O)c1ccccc1,> 43.7
11,O=C(CCCNC(=O)c1ccc(Cl)cc1)NCc1ccc(F)cc1,4.1
12,O=C(Nc1ccc2[nH]c(=O)[nH]c2c1)c1cccc([N+](=O)[O-])c1,1.2
13,O=C(NC(=S)Nc1ccccc1N1CCCC1)c1ccco1,25.3
14,Cc1[nH]c(=O)c(C#N)c(C)c1Cl,26
15,CCc1ccc(CCC(=O)Nc2ccc(Cl)cc2)o1,8.1
16,CCOc1ccc(-c2csc3ncn(-c4ccc(OC)cc4)c(=O)c23)cc1,0.4
17,Cl.NC(c1ccccc1)c1ccncc1 (stereo not drawn),> 38.6
18,COc1ccc(-c2ncnc(C(F)(F)F)c2-c2csc(C)n2)c(O)c1,53.1
19,COc1ccc(OC)c(C(C)NC(=O)C23CC4CC(CC(C4)C2)C3)c1 (stereo not drawn),0.8
20,CN1CCN(C(=S)NC(=O)c2ccccc2Cl)CC1,> 44.7
21,CC1CC(C)CN(C(=O)CSc2n[nH]c(N)n2)C1 (stereo not drawn),> 40.4
22,CCC(C)NC(=O)CN1C(=O)c2cccc3cccc1c23 (stereo not drawn),6.3
23,CCOCCCNC(=O)c1cc2c(=O)n(CC)c3ccccc3c2s1,4.8
24,CN1CCN(C(=O)c2cc(Br)cn2C)CC1,> 42.9

row,Compound,solubility kinetic [µg/mL]
1,CCn1cc(C(c2ccccc2)C(C(C)=O)[N+](=O)[O-])c2ccccc21 (stereo not drawn),4.8
2,Cc1c(C=O)c2ccccc2n1Cc1ccccc1F,20.4
3,Cc1cc(NC(=O)c2ccco2)sc1C,> 33.2
4,COCCN(CCOc1cc(C)cc(C)c1)Cc1ccc(Cl)cc1,5.6
5,CC(=O)c1c(C)[nH]c(C(=O)OCC(=O)c2ccc3c(c2)NC(=O)CO3)c1C,10.5
6,Cc1ccc(NC(=O)Nc2cnccn2)cc1,14.4
7,CCc1noc(C)c1C(=O)NCCc1ccc(F)cc1,> 41.4
8,Cc1ccc(NC(=O)C2CC3CCC2C3)c(Br)c1 (stereo not drawn),1.9
9,COc1cccc(NC(=S)N2CCC(Cc3ccccc3)CC2)c1,5.5
10,COc1cccc(NC(=O)c2c([N+](=O)[O-])cnn2C)c1,> 41.4
11,O=C(O)c1ccccc1OCCN1CCCC1=O,36.5
12,O=C(NCCc1ccc(F)cc1)c1ccc2nccnc2c1,41.6
13,O=C1CN(C(=O)CNCc2ccccc2)c2ccccc2N1,33.9
14,Cc1ccc2c(c1)N(CC(=O)N1CCCCCC1)C(=O)C(C)O2 (stereo not drawn),> 47.5
15,Cc1ccc(-c2csc(NC(=O)c3ccco3)n2)cc1C,0.7
16,CCCNC(=O)CSc1nnc(-c2ccc(F)cc2)o1,> 44.3
17,OCC1OC(n2cnc3c(NCCc4ccccc4)ncnc32)C(O)C1O (stereo not drawn),> 55.7
18,COC(=O)c1sccc1NC(=O)Nc1cccc(OC)c1,> 46
19,O=C(Nc1nccs1)c1cccnc1Cl,> 36
20,Cc1cccc(N2CCN(C(=O)c3ccccn3)CC2C)c1 (stereo not drawn),> 44.3
21,COc1cc(NC(=O)Nc2cccc(Cl)c2)c(C(=O)O)cc1OC,> 52.6
22,O=C(CN1CCOCC1)Nc1ccc(Br)cc1,> 44.9
23,COc1cc(C)ccc1OC(C)C(=O)Nc1ccc(N2CCCCC2)cc1 (stereo not drawn),2.7
24,COc1ccccc1C(=O)NCCCNC(=O)c1ccccn1,> 47

row,Compound,solubility kinetic [µg/mL]
1,OCCCNc1nc(-c2ccccc2)c2cc(Cl)ccc2n1,21.5
2,Cc1cccc(NC(=O)N2CCCc3ccccc32)c1C,13.2
3,Cc1cc(=O)n2c3ccccc3n(C)c2n1,> 32
4,Cc1ccc(C)c(NC(=O)Cn2cnc3c(oc4ccccc43)c2=O)c1,< 0.2
5,CC(=O)c1cccc(NC(=O)N2CCCCCC2)c1,> 39.1
6,O=S1(=O)C=C(SCc2ccc(F)cc2)Nc2ccccc21,22.5
7,CCc1c(C)sc(NC(=O)/C=C/C(=O)O)c1C(N)=O,> 42.3
8,CCc1ccc(NS(=O)(=O)c2cccc3nsnc23)cc1,40.5
9,O=S(=O)(NCc1ccc2c(c1)OCO2)c1ccccc1F,37.1
10,CC(Sc1ncnc2sc(-c3ccccc3)cc12)C(N)=O (stereo not drawn),0.8
11,CC1(C)COC(Cn2c3ccccc3c3ccccc32)O1 (stereo not drawn),< 0.6
12,Cc1ccc(-c2csc(NC(=O)c3ccc(F)cc3)c2C(=O)O)cc1,> 53.3
13,O=C(O)CSc1nc2c(c(C(F)(F)F)n1)CCCC2,> 43.8
14,COc1ccccc1OCCNC(=O)C1CCCCC1,33.8
15,COc1cccc(N2CCN(C(=O)CCNS(=O)(=O)c3ccc(F)c(F)c3)CC2)c1,56.7
16,O=C(O)/C=C/C(=O)N1CCc2ccccc21,> 32.6
17,Cc1cccc(N2CCN(C(=O)c3ccc4c(c3)OCCO4)CC2)c1C,15.7
18,O=C(CCNS(=O)(=O)c1ccccc1)Nc1ccccc1,> 45.7
19,CSc1ccccc1NC(=S)NC1CCCCC1,30
20,O=C(c1ccc(F)cc1)N1CCCC(c2ccccc2)C1 (stereo not drawn),36.3
21,CC(C)CC(C(=O)Nc1cccc(O)c1)N1C(=O)c2ccccc2C1=O (stereo not drawn),> 52.9
22,O=C(Nc1cccc(S(=O)(=O)N2CCCCCC2)c1)c1ccc(Cl)nc1,8.2
